Measurements published in US20110166191A1, “3-(2-amino-ethyl)-5-(3-cyclohexyl-propylidene)-thiazolidine-2,4-dione and its derivatives as multiple signaling pathway inhibitors and for the treatment of cancer” (priority 2010, published 2011).

Columns and labels:
786-0 = assay: NCI 60 cell line panel screening; assay type: cell-based; conditions: Homo sapiens, Renal Cancer, read-out: Growth Inhibition (GI50)
From the text: (§1) Compound 3-(2-aminoethyl)-5-(3-cyclohexylpropylidene)thiazolidine-2,4-dione was screened at five concentrations in National Cancer Institute (NCI) 60-cell line panel according to NCI's protocol for growth inhibition.

A498 = assay: NCI 60 cell line panel screening; assay type: cell-based; conditions: Homo sapiens, Renal Cancer, read-out: Growth Inhibition (GI50)
From the text: as §1

K-562 = assay: NCI 60 cell line panel screening; assay type: cell-based; conditions: Homo sapiens, K562, Leukemia, read-out: Growth Inhibition (GI50)
From the text: as §1

LOX IMVI = assay: NCI 60 cell line panel screening; assay type: cell-based; conditions: Homo sapiens, Melanoma, read-out: Growth Inhibition (GI50)
From the text: as §1

M14 = assay: NCI 60 cell line panel screening; assay type: cell-based; conditions: Homo sapiens, Melanoma, read-out: Growth Inhibition (GI50)
From the text: as §1

MALME-3M = assay: NCI 60 cell line panel screening; assay type: cell-based; conditions: Homo sapiens, Melanoma, read-out: Growth Inhibition (GI50)
From the text: as §1

MDA-MB-231/ATCC = assay: NCI 60 cell line panel screening; assay type: cell-based; conditions: Homo sapiens, Breast Cancer, read-out: Growth Inhibition (GI50)
From the text: as §1

MDA-MB-435 = assay: NCI 60 cell line panel screening; assay type: cell-based; conditions: Homo sapiens, Melanoma, read-out: Growth Inhibition (GI50)
From the text: as §1

MDA-MB-468 = assay: NCI 60 cell line panel screening; assay type: cell-based; conditions: Homo sapiens, Breast Cancer, read-out: Growth Inhibition (GI50)
From the text: as §1

MOLT-4 = assay: NCI 60 cell line panel screening; assay type: cell-based; conditions: Homo sapiens, Leukemia, read-out: Growth Inhibition (GI50)
From the text: as §1

NCI-522 = assay: NCI 60 cell line panel screening; assay type: cell-based; conditions: Non-Small Cell Lung Cancer, read-out: Growth Inhibition (GI50)
From the text: as §1

NCI-H23 = assay: NCI 60 cell line panel screening; assay type: cell-based; conditions: Homo sapiens, Non-Small Cell Lung Cancer, read-out: Growth Inhibition (GI50)
From the text: as §1

NCI-H322M = assay: NCI 60 cell line panel screening; assay type: cell-based; conditions: Homo sapiens, Non-Small Cell Lung Cancer, read-out: Growth Inhibition (GI50)
From the text: as §1

NCI-H460 = assay: NCI 60 cell line panel screening; assay type: cell-based; conditions: Homo sapiens, Non-Small Cell Lung Cancer, read-out: Growth Inhibition (GI50)
From the text: as §1

NCI/ADR-RES = assay: NCI 60 cell line panel screening; assay type: cell-based; conditions: Homo sapiens, Ovarian Cancer, read-out: Growth Inhibition (GI50)
From the text: as §1

OVCAR-4 = assay: NCI 60 cell line panel screening; assay type: cell-based; conditions: Homo sapiens, Ovarian Cancer, read-out: Growth Inhibition (GI50)
From the text: as §1

OVCAR-5 = assay: NCI 60 cell line panel screening; assay type: cell-based; conditions: Homo sapiens, Ovarian Cancer, read-out: Growth Inhibition (GI50)
From the text: as §1

RXF-393 = assay: NCI 60 cell line panel screening; assay type: cell-based; conditions: Homo sapiens, Renal Cancer, read-out: Growth Inhibition (GI50)
From the text: as §1

SF-539 = assay: NCI 60 cell line panel screening; assay type: cell-based; conditions: Homo sapiens, CNS Cancer, read-out: Growth Inhibition (GI50)
From the text: as §1

SK-MEL-28 = assay: NCI 60 cell line panel screening; assay type: cell-based; conditions: Homo sapiens, Melanoma, read-out: Growth Inhibition (GI50)
From the text: as §1

SN12C = assay: NCI 60 cell line panel screening; assay type: cell-based; conditions: Homo sapiens, Renal Cancer, read-out: Growth Inhibition (GI50)
From the text: as §1

SW-620 = assay: NCI 60 cell line panel screening; assay type: cell-based; conditions: Homo sapiens, Colon Cancer, read-out: Growth Inhibition (GI50)
From the text: as §1

U251 = assay: NCI 60 cell line panel screening; assay type: cell-based; conditions: Homo sapiens, U-251, CNS Cancer, read-out: Growth Inhibition (GI50)
From the text: as §1

UACC-257 = assay: NCI 60 cell line panel screening; assay type: cell-based; conditions: Homo sapiens, Melanoma, read-out: Growth Inhibition (GI50)
From the text: as §1

phosphorylation of ERK = assay: Western blot analysis of p-ERK in U937 cells; assay type: cell-based; conditions: 3 μM, PMA/TPA 200 nM stimulation
Method: (§2) FIG. 1. U937 cells were treated with Formula II prepared as described in Example 4 [i.e. 3-(2-aminoethyl)-5-(3-cyclohexylpropylidene)thiazolidine-2,4-dione] for 1 h, then stimulated with PMA (200 nM) for 30 min. Lysates were analyzed for p-Akt, p-MEK, p-ERK and α-tubulin by western blot analysis.
(§3) Cells (5×10^5 per ml) were treated with various concentrations of test compound at 37° C. (5% CO2) for 3 hrs, then stimulated with TPA at a final concentration of 200 nM for 20 min. Samples from whole-cell pellets were prepared and 30 μg protein for each condition was subjected to SDS-PAGE, transferred onto a PVDF membrane, and blocked with 5% fat-free milk for 30 min. The membrane is probed with primary antibodies overnight at 4° C. followed by incubation with horseradish peroxidase-labeled anti-mouse IgG (1:5000, BD Biosciecne). The immunoreactive bands are detected by chemiluminescence methods (Pierce) and visualized on Kodak Omat film. The following primary antibodies were used: phospho-p44/42 MAPK (ERK1/2, Thr202/Tyr204), p44/42 MAPK, phospho-p90RSK (Thr359/Ser363), RSK1/RSK2/RSK3 (Cell Signaling). Blots were reprobed with antibodies against α-tubulin to ensure equal loading and transfer of proteins.

phosphorylation of Akt = assay: Western blot analysis of p-Akt in U937 cells; assay type: cell-based; conditions: PMA/TPA 200 nM stimulation
Method: as §2, §3

B16F10 melanoma cells = assay: Reduction of murine B16F10 melanoma lung nodules in mice; assay type: in vivo, B6C3F1 mice; conditions: 20 mg/kg daily gavage
Method: FIG. 5. […] Female B6C3F1 mice (10-11/group) were injected with 2×10^5 B16F10 melanoma cells (i.v.), and treatment with 20 mg/kg dose daily (gavage) was started one day before the tumor cell injection and stopped at day 15 after tumor injection. Mice were sacrificed at day 18 and lungs were removed for counting and observation.
Female B6C3F1 mice (10-11/group) were injected with 2×10^5 B16F10 melanoma cells (i.v.), and treatment with the compound produced as described in Example 4i.e. 3-(2-aminoethyl)-5-(3-cyclohexylpropylidene)thiazolidine-2,4-dione, 20 mg/kg dosage daily (gavage) was started one day before the tumor cell injection and stopped at day 15 after tumor injection. Mice were sacrificed at day 18 and lungs were removed for counting and observation.

Toxicity studies in mice = assay type: in vivo; conditions: B6C3F1 mice, orally 30 mg/kg, 50 mg/kg and 80 mg/kg, 21 days
Method: Female B6C3F1 mice (12/group) were given example 4 orally at 30 mg/kg, 50 mg/kg and 80 mg/kg dosage or example 820 mg/kg orally for 21 days.

NCCN1C(=O)S/C(=C\CCC2CCCCC2)C1=O [Example 4, 3-(2-aminoethyl)-5-(3-cyclohexylpropylidene)thiazolidine-2,4-dione]
GI50 (786-0): 1720 nM | GI50 (A498): 1570 nM | GI50 (K-562): 2590 nM | GI50 (LOX IMVI): 1400 nM | GI50 (M14): 1680 nM | GI50 (MALME-3M): 1800 nM | GI50 (MDA-MB-231/ATCC): 2080 nM | GI50 (MDA-MB-435): 1850 nM | GI50 (MDA-MB-468): 1860 nM | GI50 (MOLT-4): 2380 nM | GI50 (NCI-522): 1400 nM | GI50 (NCI-H23): 3080 nM | GI50 (NCI-H322M): 5100 nM | GI50 (NCI-H460): 1950 nM | GI50 (NCI/ADR-RES): 2200 nM | GI50 (OVCAR-4): 1600 nM | GI50 (OVCAR-5): 1980 nM | GI50 (RXF-393): 2560 nM | GI50 (SF-539): 1830 nM | GI50 (SK-MEL-28): 1770 nM | GI50 (SN12C): 2150 nM | GI50 (SW-620): 1850 nM | GI50 (U251): 1720 nM | GI50 (UACC-257): 1690 nM | phosphorylation of ERK (p-ERK, western blot) (phosphorylation of ERK): significantly inhibited the phosphorylation of ERK | phosphorylation of Akt (p-Akt, western blot) (phosphorylation of Akt): dose dependently inhibited the phosphorylation of Akt | lung tumor nodules (B16F10 melanoma cells; B6C3F1 mice, B16F10 melanoma cells i.v., lungs at day 18): decreased the lung tumor nodules | oral bioavailability (in words) (B16F10 melanoma cells; mice): orally bioavailable | effects on general health and body weight (Toxicity studies in mice): no effects on general health and body weight were observed
